Assay results as given in patent publication US8871900B2, “Fibroblast growth factor (FGF) analogs and uses thereof” (University of Rochester, priority 2008, dated 2014).
Peptide text beside a SMILES is read from it.

Experiments:
ERK Pathway = experiment: Phosphorylation of ERK pathway; format: cell-based
Cdc42, Rac1, Mapk10, Cfl = experiment: Gene expression in irradiated BM cells (Luminex multiplex array); format: cell-based, mouse; settings: treatment 20 min after 5 Gy IR, 6 hours, P<0.05
[1] = system: epithelial cells (SW480, a cell line from colon); experiment: Growth bioassay, epithelial cells; format: cell-based; settings: FGF-P added to culture media
Description: (§1) These clusters can be counted thus allowing for measurement of relative binding coefficients. To test the feasibility of binding coefficient measurement, competition experiments were performed. Free FGF-P (30 ug/ml) was added to cells for 20 min and then the biotin-FGF-P (1 μg/mL) was added. One hour later, the streptavidin-FITC was added and analyzed by flow cytometry. […] In a third test, a bioassay was performed. FGF-P was added to culture media of two types of cells: endothelial cells (adult bovine aorta endothelium) and epithelial cells (SW480, a cell line from colon).
Three preliminary experiments were carried out using FGF-P in vitro to confirm its activity. First, the biotin conjugated FGF-P was used as a tool to examine cell surface binding. AsPC-1 pancreatic cancer epithelial cells are known to have high levels of FGFR and were used for this study. ASPC-1 cells were incubated with 1 μg/ml of biotin-FGF-P and then labeled with streptavidin-FITC. The cells were then analyzed using an imaging flow cytometer (Amnis Imagestream). This device can image each cell as it passes through the laser, and it can then sort cells according to both staining and morphological characteristics. […] These clusters were counted, allowing for measurement of relative binding coefficients. […] One hour later, streptavidin-FITC was added and analyzed by flow cytometry. […]

MCP-1, IL-6, TNFα = experiment: Plasma inflammatory molecules after sub-TBI (Luminex bead array); format: in vivo, mouse (Balb/c); settings: Balb/c, 12 Gy sub-TBI, 3.5 days; FGF-P 2 mg/kg at 10 min post-IR and daily for two days
Description: Bead array technology has been developed to facilitate the study of cytokine expression profiles in normal tissues following radiation. Bead arrays have several advantages over ELISA. First, mice have a limited blood volume (0.3-0.4 ml of plasma/mouse). Each ELISA typically requires approximately 0.1 ml and thus only a limited number of assays are possible. Secondly, the time required to perform ELISAs one by one stresses the system in a large experiment and would be difficult to perform in the field in case of a radiological event. The Luminex bead array technology was used. The paired monoclonal antibodies, the highly-purified protein standards, and the more than 50 different cytokinespecific beads were purchased. In these studies, Balb/c mice received 12 Gy sub-TBI and then im injection of vehicle alone (0.2 ml of saline), FGF-P (2 mg/kg at 10 min post-IR and daily for two days), or Amifostine (200 mg/kg, either 30 min before IR, or 10 min after IR). The samples were collected 3.5 days after IR.
All three of these cytokines are associated with increased severity and progression of radiation-related inflammatory toxicity in mouse and man.

[2] = system: FGFR on AsPC-1 pancreatic cancer epithelial cells; experiment: Cell surface binding of biotin-FGF-P, imaging flow cytometry (Amnis Imagestream)
Description: Three preliminary experiments were carried out using FGF-P in vitro to confirm its activity. First, the biotin conjugated FGF-P was used as a tool to examine for cell surface binding. AsPC-1 pancreatic cancer epithelial cells are known to have high levels of FGFR and were used for this study. ASPC1 cells were incubated with 1 μg/ml of biotin-FGF-P and then labeled with streptavidin-FITC. The cells were then analyzed using an imaging flow cytometer (Amnis Imagestream). This device can image each cell as it passes through the laser, it can then sort cells according to both staining and morphological characteristics.
as §1, with “FGF-P was added to culture media of two types of cells: endothelial cells (adult bovine aorta endothelium) and epithelial cells (SW480, a cell line from colon).” left out
Three preliminary experiments were carried out using FGF-P in vitro to confirm its activity. […] The cells were then analyzed using an imaging flow cytometer (Amnis Imagestream). […] These clusters were counted, allowing for measurement of relative binding coefficients. […] One hour later, streptavidin-FITC was added and analyzed by flow cytometry. […]

[3] = Plasma endotoxin (LPS) after TBI; format: in vivo, mouse; settings: IR mice
From the text: This relates with the FGF-P promotion of WBC regeneration. The low endotoxin indicates a low probability of endothelium damage and less consumption of platelet, which promotes the recovery of homeostasis of TBI mice.

[4] = Tail vein bleeding time after 4 Gy TBI; format: in vivo, mouse; settings: 10 days after 4 Gy TBI; FGF-P 15 mg/kg daily for 3 days then every other day for 3 times
From the text: The bleeding is stopped by coagulant cascade, mainly the platelet aggregation, the vessel contraction and thrombosis which are trigged by the released platelet granules (Francis 2007, Khorana 2005). IR blocks the megakaryocytopoiesis and reduces the thrombocytopoiesis (an imbalance between the synthesis and consuming of coagulant proteins), which leads to a prolonged bleeding time. To determine if FGF-P has any effect on the bleeding time, the a single tail vein at the same anatomy position was cut in same depth and merged into 37° C. warm water, the time between bleeding and stopping was recorded. The test was performed on 10 days after 4 Gy TBI.

For `CC(C)C[C@H](NC(=O)[C@H](C)NC(=O)[C@@H](NC(=O)[C@H](Cc1ccc(O)cc1)NC(=O)[C@H](Cc1c[nH]c2ccccc12)NC(=O)[C@H](CO)NC(=O)[C@H](CO)NC(=O)[C@H](Cc1ccc(O)cc1)NC(=O)[C@H](CCCCN)NC(=O)[C@H](CCCNC(=N)N)NC(=O)[C@H](CO)NC(=O)[C@H](CCCNC(=N)N)NC(=O)[C@H](Cc1ccc(O)cc1)NC(=O)[C@@H](N)CS)C(C)C)C(=O)N[C@@H](CCCCN)C(=O)N[C@@H](CCCNC(=N)N)C(=O)N[C@@H](CS)C(=O)O` [FGF-P, CYRSRKYSSWYVALKRC] (H-CYRSRKYSSWYVALKRC-OH; N-terminus and C-terminus assumed), the “phosphorylation of ERK pathway” value (ERK Pathway) was “triggers phosphorylation of ERK Pathway”, the “expression of Cdc42” value (Cdc42, Rac1, Mapk10, Cfl) was “reversed the IR-suppressed expression” and the “expression of Cfl (cofilin 1)” value (Cdc42, Rac1, Mapk10, Cfl) was “suppressed towards normal”. The “expression of Mapk10” value (Cdc42, Rac1, Mapk10, Cfl) was “suppressed towards normal”, the “expression of Rac1” value (Cdc42, Rac1, Mapk10, Cfl) was “reversed the IR-suppressed expression” and the growth of epithelium [1] was “stimulated the growth of both endothelium and epithelium”. The “plasma MCP-1, IL-6 and TNFα” value (MCP-1, IL-6, TNFα) was “normalized or near-normalized these factors”, the cell surface binding ([2]; AsPC-1 cells, 1 μg/ml biotin-FGF-P, streptavidin-FITC) was “bound to the cell surface and causes the aggregation of FGFR” and the “competition with biotin-FGF-P for cell surface binding” value ([2]; free FGF-P 30 ug/ml for 20 min, then biotin-FGF-P 1 μg/mL) was “competed with biotin-FGF-P for cell surface binding”. For the same compound, the “plasma level of endotoxin (LPS)” value [3] was “reduced the LPS level” and the bleeding time [4] was “shorter bleeding time”.
